Where two headings read alike, the source gives them in different places.
Tests used:
SK-MEL-28 cells = assay: HGF-stimulated melanoma proliferation cell assay; assay type: cell-based; details: Homo sapiens, 72 h
Protocol: SK-MEL-28 cells were added to 96-well plates (2,500 cells/well). Effects on cell proliferation were assessed by incubation of SK-MEL-28 cells in complete media, media containing 50 ng/mL HGF, or media mixed 1:1 with MRC-5 fibroblast-conditioned media. Plates were incubated for 72 h.

[1] = test system: SK-MEL-28 and SK-MEL-5 cells (pERK, pMET, AKT); assay: HGF-stimulated melanoma cell signal transduction assay; assay type: cell-based; details: 50 nM
Protocol: SK-MEL-5 and SK-MEL-28 cells were added to 12-well plates at 450,000 and 250,000 cells/well, respectively, and incubated overnight. […] Cells were then stimulated with 50 ng/mL HGF for 1 hr. Antibodies were obtained from Cell Signaling Technology.

PyMT mammary tumor = assay: PyMT syngeneic breast cancer model; assay type: in vivo, mice
Protocol: Female FVB/NJ mice were implanted in the 4th mammary fat pad with one million cells that had been dissociated from tumor fragments from MMTV-PyMT donor mice. […] Mice (n=10/group) were dosed for three weeks, then, primary tumor and lungs were collected and fixed. Lung sections were stained with H&E at Premier Laboratory. Lung metastases (≧10 cells) were counted manually via microscopy. Data were analyzed via one-way analysis of variance (ANOVA), with post-hoc analysis by the method of Holm-Sidak. For analysis of TIE2-positive macrophages, tumor sections were stained with TIE2 and CD31 antibodies at Premier Laboratory. The density of TIE2-positive cells at the stroma/tumor boundary in each tumor was scored using 0=no staining, 1=low, 2=medium, and 3=high.

U87-MG xenograft glioma = assay: Orthotopic U87-MG xenograft efficacy model (BLI); assay type: in vivo, mice; details: after two weeks of treatment; bevacizumab 5 mg/kg IP every three days; Compound 1 10 mg/kg BID
Protocol: Protocol for in vivo xenograft efficacy study. […] Treatments began on Day 31.
The tumor cells were injected intracerebroventricularly (ICV) and tumor growth was monitored in vivo by quantitation of luciferase-mediated BLI.

[2] = test system: circulating TIE2+ and TIE2+/MET+ monocytes; assay: Flow cytometry of circulating TIE2/MET-expressing monocytes from U87-MG xenograft model; assay type: in vivo, mice; details: single agents; after five weeks of treatment
Protocol: Flow cytometry of circulating TIE2/MET-expressing monocytes from U87-MG xenograft model. Peripheral blood samples were fixed using Lyse/Fix buffer (BD Biosciences, San Jose, Calif.). BD Fc Block was added and cells were stained with CD11b-PECy7 and Gr1-APC antibodies (BD Pharmingen), and TIE2-PE and MET-FITC antibodies (eBioscience) or isotype controls. Data was collected on an Accuri C6 cytometer. Monocytes were gated using side and forward scatter.
To monitor these monocytes in the U87 survival model, peripheral monocytes were gated on CD11b+/Grl-surface markers and TIE2^+ and/or TIE2^+/MET^+ cells quantitated. In the U87 glioma survival study, we observed both of these TIE2^+ expressing monocyte populations in the circulation of vehicle-treated mice after five weeks of treatment. […] The lowered population of both of these TIE2^+ monocyte populations in the combination cohort was consistent with greater survival benefit (FIG. 6).

GSC11 glioblastoma cells = assay: GSC11 glioma stem cell patient-derived xenograft model (tumor volume, immunohistochemistry); assay type: in vivo, mice
Protocol: (§1) For the in vivo experiments, 4- to 6-week-old female nude mice that were strictly inbred at The University of Texas MD Anderson Cancer Center and maintained in the MD Anderson Veterinary in accordance with institutional guidelines were used. For the in vivo experiments, GSC11 (5×10^5) or GSC17 (5×10^4) glioblastoma cells were implanted intracranially into nude mice. […] Control mice for these cohorts were treated with phosphate-buffered saline by i.p. injection and/or with 0.4% HPMC vehicle by oral gavage. One cohort of 10 mice per group were treated continuously and followed for survival. A separate cohort of 9 mice per group were treated continuously until the designated time point, and the tumors from these mice were extracted at 3, 4, 5 weeks in GSC11 xenograft mice model and at 3.5, 4.5, 5.5 weeks in GSC17 xenograft mice model after the start of treatment.
(§2) When the mice treated for the designated time period developed signs and symptoms of advanced tumors, they were euthanized, and their brains were removed, fixed in 4% formaldehyde for 24 hours, and embedded in paraffin. The tissues were then sectioned serially (4 μm) and stained with hematoxylin and eosin (Sigma-Aldrich). Tumor formation and phenotype were determined by histologic analysis of the hematoxylin- and eosin-stained sections. The tumor volume, greatest longitudinal diameter (length), and greatest transverse diameter (width) were measured using an external caliper and Adobe Illustrator software. The tumor volumes were calculated by the following formula: volume=½(length×width^2).
(§3) For immunohistochemical analyses, the tissue sections were deparaffinized and subjected to graded rehydration. After blocking the tissue in 5% horse and goat serum and antigen retrieval solution (citrate buffer, pH 6.0), we incubated the tissue sections overnight at 4° C. with primary antibodies against Factor VIII (1:500; A0082, Dako) to assess microvessel formation, vimentin (1:100; M0725, Dako) to assess mesenchymal marker expression, F4/80 (1:50; 123102, BioLegend) to assess monocyte infiltration, nestin (1:300; Ab6142, Abcam) to assess glioma stem cell marker expression, HGF (1:200; LS-B4657, LSBio), and TIE2 (1:50; Santa Cruz Biotechnology) to assess TIE2-expressing monocyte infiltration. Texas red fluorescein isothiocyanate-conjugated secondary antibodies or anti-rat immunoglobulin G antibodies (Invitrogen) were used for 1 hour at room temperature.
(§4) All statistical analyses were conducted with the GraphPad 6 (InStat) software for Windows 7. Survival analysis was conducted using the Kaplan-Meier method, and differences in survival between treatment groups were assessed using the log-rank test. All other comparisons were performed using an unpaired two-tailed Student t-test. Summary statistics for continuous data are expressed as the mean±standard error of the mean. P values less than 0.05 were considered statistically significant. The nestin staining was assessed using the Image-Pro Plus system version 7.0 (Media Cybernetics) in ×10 fields of at least three tumor samples per group with three to four different sections per tumor sample.

GSC17 glioblastoma cells = assay: GSC17 glioma stem cell patient-derived xenograft model (tumor volume, immunohistochemistry); assay type: in vivo, mice
Protocol: as §1, §2, §3, §4

With `CC(C)(C)c1nc(-c2cccc(NS(=O)(=O)c3c(F)cccc3F)c2F)c(-c2ccnc(N)n2)s1` [dabrafenib] the IC50 (SK-MEL-28 cells; 50 ng/mL HGF or MRC-5 fibroblast-conditioned media, read-out: IC50, proliferation of SK-MEL-28 with HGF or fibroblast-conditioned media) was > 10000 nM, the IC50 (SK-MEL-28 cells; complete media, read-out: IC50, proliferation of SK-MEL 28) was 10.6 nM and the “Phosphorylation of ERK upon HGF stimulation” value ([1]; 50 ng/mL HGF 1 hr) was “ERK remained fully phosphorylated”. For the same molecule, the “Phosphorylation of ERK” value ([1]; no HGF) was “inhibited phosphorylation”.
In the case of `CC(=O)O[C@H]1C(=O)[C@@]2(C)[C@H]([C@H](OC(=O)c3ccccc3)[C@]3(O)C[C@H](OC(=O)[C@H](O)[C@@H](NC(=O)c4ccccc4)c4ccccc4)C(C)=C1C3(C)C)[C@]1(OC(C)=O)CO[C@@H]1C[C@@H]2O` [paclitaxel, reference compound], the “Tumor growth inhibition (TGI)” value (PyMT mammary tumor; after dosing for three weeks, paclitaxel 10 mg/kg i.v. every 5 days, Compound 1 15 mg/kg twice daily) is reported as 42%, the “Reduction of TIE2 score (stromal density of TIE2+ cells)” value (PyMT mammary tumor; same dosing) is reported as “did not reduce” and the “Reduction of lung metastases compared to controls” value (PyMT mammary tumor; same dosing) is reported as 64%.
For bevacizumab [reference compound], the “Decrease in BLI signal compared to vehicle” value (U87-MG xenograft glioma) was 63%, the “Numbers of circulating TIE2+ and TIE2+/MET+ monocyte populations” value [2] was “did not alter” and the “Tumor volume at 3 weeks” value (GSC11 glioblastoma cells; GSC11, bevacizumab 10 mg/kg i.p. twice per week, Compound 1 10 mg/kg oral twice daily) was 14.3±6.9 mm^3. The “Tumor volume at 4 weeks” value (GSC11 glioblastoma cells; GSC11, same dosing) was 30.7±4.2 mm^3, the “Tumor volume at 5 weeks” value (GSC11 glioblastoma cells; GSC11, same dosing) was 46.6±4.5 mm^3 and the “Factor VIII-positive area” value (GSC11 glioblastoma cells; GSC11 model) was 3.3±1.1%. The Nestin-positive area (GSC11 glioblastoma cells; GSC11 xenograft mouse model) was 59.8±6.0%, the “Mesenchymal tumor marker vimentin / EMT (immunohistochemistry)” value (GSC11 glioblastoma cells; GSC-11 glioma model) was “therapy-induced increase in EMT” and the “Macrophage infiltration into tumor (F4/80 IHC staining)” value (GSC11 glioblastoma cells; GSC-11 glioma xenograft model) was “stimulating the influx of tumor-promoting macrophages”. The “Tumor volume at 3.5 weeks” value (GSC17 glioblastoma cells; GSC17, bevacizumab 10 mg/kg i.p. twice per week, Compound 1 10 mg/kg oral twice daily) was 0.4±0.4 mm^3, the “Tumor volume at 4.5 weeks” value (GSC17 glioblastoma cells; GSC17, same dosing) was 0.05±0.03 mm^3 and the “Tumor volume at 5.5 weeks” value (GSC17 glioblastoma cells; GSC17, same dosing) was 9.6±4.6 mm^3. For the same molecule, the “Factor VIII-positive area” value (GSC17 glioblastoma cells; GSC17 xenograft mouse model) was 3.0±0.3%, the Nestin-positive area (GSC17 glioblastoma cells; GSC17 xenograft mouse model) was 20.6±2.7% and the “Mesenchymal tumor marker vimentin / EMT (immunohistochemistry)” value (GSC17 glioblastoma cells; GSC-17 glioma model) was “therapy-induced increase in EMT”. The “Tumor infiltration of TIE2-positive/F4/80-positive cells” value (GSC17 glioblastoma cells; GSC-17 glioma xenograft model) was “increased”.

— patent US20170079966A1, “INHIBITION OF TUMOR CELL INTERACTIONS WITH THE MICROENVIRONMENT RESULTING IN A REDUCTION IN TUMOR GROWTH AND DISEASE PROGRESSION” (Deciphera Pharmaceuticals, LLC, priority 2014, published 2017)
